The values that follow come from patent publication EP4563577A1, “NOVEL SALT OF IMIDAZO[1,2-A]PYRIDINE COMPOUND, CRYSTALLINE FORM THEREOF, AND PREPARATION METHOD” (Jeil Pharmaceutical Co., Ltd., priority 2022, dated 2024).

The nature of data set [1]: Bioavailability evaluation (pharmacokinetics after oral capsule administration). Format: in vivo. Particulars: fasted male beagle dogs, oral capsules, 10 mg/kg; for AUC(0-inf) / AUC(0-t) / Cmax / Tmax: dog, plasma. As for the experimental part: Bioavailability was evaluated with regard to azetidin-1-yl{8-[(2,6-dimethylbenzyl)amino]-2,3-dimethylimidazo[1,2-a]pyridin-6-yl}methanone citrate according to Example 4(1) of the present invention and azetidin-1-yl{8-[(2,6-dimethylbenzyl)amino]-2,3-dimethylimidazo[1,2-a]pyridin-6-yl}methanone obtained according to Preparation Example 1 as an comparative example. Specific pharmacokinetic experiments and evaluation methods are as follows.
Fasted male beagle dogs were orally administered with capsules at a dose of 10 mg/kg, and bled at 0.08, 0.25, 0.5, 1, 3, 5, 8, and 24 hours after administration. Blood collected in an amount of 3 ml each from the jugular vein was centrifuged to separate plasma, and stored frozen in a cryogenic freezer before analysis.
Plasma pretreatment was performed by a protein precipitation method. 300 ul of acetonitrile containing an internal standard (200 ng/ml of carbamazepine) was added to 100 ul of a plasma sample and mixed. After sufficiently mixing, the resulting mixture was centrifuged at 12,000 rpm for 10 minutes, after which the supernatant was transferred to an assay vial and injected into a LC-MS/MS to analyze a blood concentration of the compound.
Parameters of time to maximum plasma concentration (Tmax), maximum plasma concentration (Cmax), and area under the plasma-concentration time curve (AUC0-t, AUC0-inf) were obtained using PK Solution.

Data set [2] is described as follows: Photostability evaluation (discoloration observed with naked eyes). Format: physicochemical. As for the experimental part:
It is determined to be suitable only when the white to yellowish off-white powder form is maintained as a solid property.

Data set [3] can be described thus: Short-term storage stability (heat/moisture), purity by HPLC. Type of data set: physicochemical. As for the experimental part:
Purity of azetidin-1-yl{8-[(2,6-dimethylbenzyl)amino]-2,3-dimethylimidazo[1,2-a]pyridin-6-yl}methanone citrate according to Example 4(1) of the present invention was measured, and then the purity was measured after being left at 60°C for four days. Purity measurements were performed by HPLC. In addition, with regard to azetidin-1-yl{8-[(2,6-dimethylbenzyl)amino]-2,3-dimethylimidazo[1,2-a]pyridin-6-yl}methanone citrate according to Example 4(1) of the present invention, the purity was measured after being left for two days under the condition of 75 to 90% humidity (RH).

Data set [4] in a line: Long-term storage stability (25±2°C, 60±5% RH). Type of data set: physicochemical. Particulars: for Moisture: criteria 1.0% or less; for Purity: criteria 99.0% or more; for Property: criteria: White to yellowish off-white powder. The procedure: (§1) An X-ray powder diffraction pattern was obtained through a solid phase detector over a range of 2° to 40° of a diffraction angle (2θ) with a 0.02° step size by using D8 Focus (Bruker ASX). The moisture content of the obtained sample was measured with an 870KF Titrino Plus (Metrohm) Karl-Fischer moisture meter. Immediately after preparing azetidin-1-yl{8-[(2,6-dimethylbenzyl)amino]-2,3-dimethylimidazo[1,2-a]pyridin-6-yl}methanone citrate according to Example 4(1) of the present invention, properties were confirmed with naked eyes, and the moisture content, purity, and XRD were measured, respectively. Subsequently, the same was primarily sealed in a polyethylene bag and then secondarily sealed in an aluminum bag, and then the properties were confirmed with naked eyes and the moisture content, purity, and XRD were also measured at 12, 24 and 36 months after being stored under the condition of 25±2°C and 60±5% RH.

Data set [5] is described as follows: Thermal and moisture stability under accelerated conditions (40±2°C, 75±5% RH). Format: physicochemical. Particulars: for Moisture: criteria 1.0% or less; for Purity: criteria 99.0% or more; for Property: criteria: White to yellowish off-white powder. As for the experimental part:
as §1, with “at one” for “at 12, 24”, “and six” for “and 36”, “under an accelerated” for “under the”, “of 40±2°C” for “of 25±2°C”, “and 75±5%” for “and 60±5%”

Setting [6] is: Immediately after preparation (Initial value).

One may read the AUC(0-inf) as total exposure, with the tail of the curve extrapolated. Higher therefore signals high exposure. One may read the AUC(0-t) as exposure summed from dosing to a finite time, without extrapolation to infinity. Read a low AUC(0-t) as low exposure. The Cmax is the peak of the concentration-time curve. The term Tmax denotes the time at which the peak concentration occurs. On to `Cc1cccc(C)c1CNc1cc(C(=O)N2CCC2)cn2c(C)c(C)nc12.O=C(O)CC(O)(CC(=O)O)C(=O)O` [Citrate of Compound I, azetidin-1-yl{8-[(2,6-dimethylbenzyl)amino]-2,3-dimethylimidazo[1,2-a]pyridin-6-yl}methanone citrate], for which the AUC(0-inf) in data set [1] stood at 15200 ng·h/mL. The compound also returned an AUC(0-t) in data set [1] of 15000 ng·h/mL. The compound further returned a Cmax in data set [1] of 3030 ng/mL. In addition, in data set [1], the Tmax came out at 1 h. For the same compound, the “AUC improvement relative to Comparative Example (compound I free base)” value in data set [1] is on record as “five times or more”. For the same compound, in data set [1], the “Cmax increase relative to Comparative Example (compound I free base)” value is at least 11 times. For the same compound, the color entry in data set [2] (Initial value) is “White”; in data set [2] (UV 200 watt (35 W), 25°C, humidity 60%) it was “Off-white”; in data set [2] (Visible 1200k lux (35k lux), 25°C, humidity 60%) it was “Slightly off-white”. For the same compound, the “Purity (%)” value in data set [3] (Humidity 75~90 %, Day 2) turned out to be 99.976%; in data set [3] (Initial value), 99.955%; in data set [3] (Temperature 60°C, Day 4), 99.974%. In addition, the “XRD (Comparison with initial value)” value was “Same” in data set [4] (12 months, 25±2°C, 60±5% RH); “Same” in data set [4] (24 months, 25±2°C, 60±5% RH); “Same” in data set [4] (36 months, 25±2°C, 60±5% RH); “Same” in data set [4] (setting [6]); “Same” in data set [5] (1 month, 40±2°C, 75±5% RH); “Same” in data set [5] (6 months, 40±2°C, 75±5% RH). The “XRD (Comparison with initial value)” value in data set [5] (setting [6]) is on record as “Same”. The Moisture in data set [4] (12 months, 25±2°C, 60±5% RH) worked out at 0.52%; in data set [4] (24 months, 25±2°C, 60±5% RH), 0.45%; in data set [4] (36 months, 25±2°C, 60±5% RH) it was 0.60%; in data set [4] (setting [6]) it was 0.74%; in data set [5] (1 month, 40±2°C, 75±5% RH), 0.75%; in data set [5] (6 months, 40±2°C, 75±5% RH) it was 0.15%. Also, the Moisture in data set [5] (setting [6]) was found to be 0.74%. For the same compound, the Purity in data set [4] (12 months, 25±2°C, 60±5% RH) was determined as 99.96%; in data set [4] (24 months, 25±2°C, 60±5% RH), 99.97%; in data set [4] (36 months, 25±2°C, 60±5% RH) it was 99.96%; in data set [4] (setting [6]) it was 99.96%; in data set [5] (1 month, 40±2°C, 75±5% RH) it was 99.97%; in data set [5] (6 months, 40±2°C, 75±5% RH), 99.96%. In data set [5] (setting [6]), the Purity amounted to 99.96%. Further, the Property entry in data set [4] (12 months, 25±2°C, 60±5% RH) is listed as “Suitable”; in data set [4] (24 months, 25±2°C, 60±5% RH), “Suitable”; in data set [4] (36 months, 25±2°C, 60±5% RH) it was “Suitable”; in data set [4] (setting [6]), “Suitable”; in data set [5] (1 month, 40±2°C, 75±5% RH), “Suitable”; in data set [5] (6 months, 40±2°C, 75±5% RH) it was “Suitable”. The Property entry in data set [5] (setting [6]) is listed as “Suitable”.
For the compound `Cc1cccc(C)c1CNc1cc(C(=O)N2CCC2)cn2c(C)c(C)nc12` [Compound I (free base), Azetidin-1-yl{8-[(2,6-dimethylbenzyl)amino]-2,3-dimethylimidazo[1,2-a]pyridin-6-yl}methanone], in data set [1], the AUC(0-inf) amounted to 2820 ng·h/mL, the AUC(0-t) was 2630 ng·h/mL, the highest level (Cmax) was 262 ng/mL and the Tmax came to 5 h.
